In US20060258716A1, “Methods and compositions for the treatment of helicobacter pylori-associated diseases using endoperoxide bridge-containing compounds” (priority 2003, published 2006):
In brackets after ≈: the same amount, converted by molar mass.

Columns and labels:
H. pylori [1] = assay: Growth inhibition of H. pylori (MIC), growth monitored by spectrophotometer; format: cell-based; details: for minimal inhibitory concentration (MIC): Example 4, FIG. 4
Method: (§1) To test the effect of artemisinin on the growth of H. pylori, freshly prepared bacteria were exposed to various concentrations of artemisinin. Bacteria were grown for fixed incubation times and their growth levels were monitored using a spectrophotometer. The growth of treated bacteria was compared to that of non-treated bacteria.
as §1, with “effectivity” for “effect”, “artemisinin derivatives” for “artemisinin”, “artemisinin derivatives.” for “artemisinin.”

[2] = system: H. pylori exhibiting resistance to clarithromycin (CLR) and metronoidazole; assay: Growth of clarithromycin- and metronidazole-resistant H. pylori strains; format: cell-based; details: 2.5-10 μM artemisinin, 3 days, micro-aerophilic conditions, FIG. 2
Method: Unsuccessful therapy in patients infected with H. pylori is frequently correlated to clarithromycin and metronidazole resistance. […] Bacterial cultures were incubated in micro-aerophilic conditions. The effect of clarithromycin or artemisinin on bacterial growth was tested using a spectrophotometer after 3 days.

anaerobic bacteria = details: cited from earlier work
E. coli = assay: MBC against E. coli; format: cell-based
Method: (§2) To determine whether the effect of artemisinin is specific to H. pylori, the ability of artemisinin to inhibit the growth of E. coli and P. acnes was tested. In contrary to H. pylori, which is a microaerophilic bacterium, E. coli is an aerobic intestinal bacterium, and P. acnes is an anaerobic dermal bacterium. These bacteria were exposed to various concentrations of artemisinin, and MIC and MBC values were determined.

P. acnes = assay: MBC against P. acnes; format: cell-based
Method: as §2

[3] = system: Lactobacillus acidophilus; assay: MBC against Lactobacillus acidophilus; format: cell-based; details: L. acidophilus
Method: (§3) The effect of artemisinin on the growth and viability of Lactobacillus acidophilus (L. acidophilus) that is part of the normal flora of the intestine was examined. L. acidophilus bacteria were grown with various concentration of artemisinin and its effect was determined.

H. pylori [4] = assay: Combined effect of artemisinin and omeprazole on H. pylori growth; format: cell-based; details: 0.5 μg/ml artemisinin alone, 3 days
Method: In order to explore the possible synergism between artemisinin and a PPI, the growth of bacteria in the presence of artemisinin, omeprazole or both was examined. H. pylori bacteria were grown in the presence of 3-24 μg/ml omeprazole or 0.5-4 μg/ml of artemisinin. Bacterial cultures were incubated in micro-aerophilic conditions. The combined effect of artemisinin and omeprazole on bacterial growth was tested using a spectrophotometer after 3 days.

cancer cells = details: cited from earlier work
[5] = system: Lactobacillus acidophilus; assay: MIC / growth of Lactobacillus acidophilus; format: cell-based
Method: as §3

H. pylori [6] = assay: Minimal bactericidal concentration: treated H. pylori plated on solid medium, colonies counted; format: cell-based; details: no colony-forming units on solid medium
Method: To further determine the antibacterial effect of artemisinin, H. pylori maintained in the presence of various concentrations of artemisinin were plated on solid medium and the number of single colonies was monitored.

[7] = system: H. pylori bacterial strain SS1; assay: H. pylori-infected mice, colony forming units from homogenized stomach; format: in vivo; details: oral 50 mg/kg 3 times/day for 8 days, day 4 and 8, versus placebo, FIG. 7
Method: The effect of artesunate against H. pylori infection in vivo was tested in H. pylori-infected mice. Mice were infected by inoculation (×3/day) with suspension of 10^9 H. pylori bacterial strain SS1. Two weeks following the infection, mice were treated orally with 50 mg/kg artesunate 3 times/day for 8 days. The level of bacterial infection was determined by counting the number of colony forming units derived from the homogenized stomach on day 4 and 8 of the treatment.

H. pylori [8] = assay: Anti-Helicobacter activity of artesunate after pre-incubation in simulated gastric fluid; format: cell-based; details: 1 mg/ml pre-incubated in SGF pH 1.2 at 37° C. up to 24 h, cultures then exposed 36 h, FIG. 6
Method: Artesunate (1 mg/ml) was pre-incubated in simulated gastric fluid (SGF, pH 1.2) or in bacterial broth medium (BBM, natural pH) at 37° C. for various time periods (1, 2, 4, 6, and 24 hours). After the pre-incubation, bacterial cultures (0.01 O.D) were exposed for 36 h to culture medium containing the pre-incubated artesunate. The effect of artesunate on bacterial growth was then determined by spectrophotometer.

H. pylori [9] = assay: Timed artesunate exposure and wash-out, regrowth of H. pylori cultures; format: cell-based; details: 0.625 or 6.25 mM, exposure 0.5-18 hours, then 36 hours artesunate-free medium, FIG. 5
Method: Artesunate (0.625 or 6.25 mM) was added to bacterial cultures (0.2 O.D.600) for various time points (0.5, 1, 2, 4, 6, and 18 hours). Artesunate was then washed out from the cultures by precipitation of the bacteria and washing in PBS, after which bacteria were re-suspended in a fresh artesunate-free medium. Bacteria were maintained in artesunate-free medium for additional 36 hours and bacterial growth was then determined by spectrophotometer.

ulcerative lesion index = details: lesions produced by ethanol and indomethacin in rats; cited from earlier work
[10] = system: wild type of E. coli having intact DNA gyrase genes; details: cited from earlier work
[11] = system: E. coli strains defective in DNA-gyrase enzyme; details: cited from earlier work

CCO[C@H]1O[C@@H]2O[C@@]3(C)CC[C@H]4[C@H](C)CC[C@@H]([C@H]1C)[C@@]24OO3 [arteether]
minimal inhibitory concentration (MIC) (H. pylori [1]): 0.15 to 0.3 µM

CO[C@H]1O[C@@H]2O[C@@]3(C)CC[C@H]4[C@H](C)CC[C@@H]([C@H]1C)[C@@]24OO3 [artemether]
minimal inhibitory concentration (MIC) (H. pylori [1]): 0.3 to 0.6 µM

C[C@@H]1CC[C@H]2[C@@H](C)C(=O)O[C@@H]3O[C@@]4(C)CC[C@@H]1[C@]32OO4 [artemisinin]
Sensitivity of clarithromycin- and metronidazole-resistant H. pylori strains [2]: significant sensitivity
Anti-microbial activity (anaerobic bacteria): possesses an anti-microbial activity
MIC (minimal inhibitory concentration) (H. pylori [1]; Example 1, Table 1): 2.5 µM (≈ 0.706 µg/mL)
MBC (minimal bactericidal concentration) (E. coli): >5000 µM
MBC (minimal bactericidal concentration) (P. acnes): >5000 µM
MBC (minimal bactericidal concentration) [3]: >5000 µM
Bacterial growth, artemisinin alone (H. pylori [4]): not effective alone
Concentration range toxic to cancer cells in vitro (cancer cells): 20 to 180 µM
MIC (minimal inhibitory concentration) ([5]; L. acidophilus): >5000 µM
Effect on growth of L. acidophilus ([5]; any used concentration below 5 mg/ml): did not affect the growth
MBC (minimal bactericidal concentration) (H. pylori [6]): 125 to 250 µM

C[C@H]1[C@H](OC(=O)CCC(=O)O)O[C@@H]2O[C@@]3(C)CC[C@H]4[C@H](C)CC[C@@H]1[C@@]24OO3 [artesunate]
Number of colony forming units from homogenized stomach [7]: efficiently reduced the number of colony forming units
Anti-Helicobacter activity after pre-incubation in low pH (H. pylori [8]): preserved
Bacterial growth after wash-out of artesunate (H. pylori [9]): irreversible bacterial eradication

C[C@@H]1CC[C@H]2[C@@H](C)C(=O)O[C@@H]3O[C@@]4(C)CC[C@@H]1[C@]32O4 [deoxyartemisinin]
Gastric cytoprotection (ulcerative lesion index) (ulcerative lesion index): provided gastric cytoprotection

CCO[C@@H]1O[C@@H]2O[C@]3(C)CC[C@H]4[C@H](C)CC[C@@H]([C@H]1C)[C@@]24OO3 [α-arteether]
Sensitivity [10]: not sensitive
Growth inhibition [11]: inhibits the growth

dihydro-epideoxyarteannuin B
Gastric cytoprotection (ulcerative lesion index) (ulcerative lesion index): provided gastric cytoprotection
